{"source": "patent US20260325519A1", "about": "“METHOD AND PHARMACEUTICAL COMPOSITION FOR USE IN THE TREATMENT OF FOCAL CORTICAL DYSPLASIA” (priority 2023, published 2026)", "key": {"[1]": {"test_system": "acute cortical slices from a patient with FCD", "test": "Recurrent epileptiform discharges (LFP) in human acute slice from surgically resected FCD", "type": "cell-based", "conditions": "5 μM UBP 310, 50 μM 4-AP and 5 μM gabazine", "protocol": "Cortical slices from patients with drug-resistant epilepsy Acute and cultured slices at 350 μm thickness were prepared from surgical cortical resections from patient diagnosed with drug-resistant epilepsy (AP-HM, Hôpital de La Timone, Marseille, France; CHU Pellegrin, Bordeaux, France) as previously described (Le Duigou et al., 2018). At DIV 1, a subset of cultured slices were transduced with AAV9 with antigrik2 miRNA applied directly to slices (4E+10 per slice).\nPrior to recordings, rat or human acute slices were transferred in oxygenated normal cerebrospinal fluid (ACSF) at room temperature (>1 hour). The ACSF contained (in mM, Sigma-Aldrich): 126 NaCl, 3.5 KCl, 1.2NaH2PO4, 26 NaHCO3, 1.3 MgCl2, 2.0 CaCl2 , and 10 glucose (pH 7.4). For electrophysiological recordings, cortical slices were individually transferred to a recording chamber maintained at 30-32 °C and continuously perfused (2-3 ml/min) with oxygenated (95% O2 and 5% CO2) ACSF containing either 5 μM gabazine, or 5 μM gabazine and 50 μM 4-AP in rats and human tissues, respectively. Spontaneous recurrent epileptiform discharges were recorded as local field potentials as previously described (Peret et al., 2014).\nAll statistical analyses were performed using Prism 6 (Graphpad). Normality of the data distributions was systematically tested using a Shapiro-Wilk test. […]"}, "[2]": {"test_system": "neocortical acute slices from rats with FCDII", "test": "Spontaneous recurrent epileptiform discharges (LFP) in acute neocortical slices from adult FCD rats", "type": "cell-based, rat (Wistar)", "conditions": "5 μM gabazine", "protocol": "Our study takes advantage of a rat model of FCD developed in our laboratory (Pelorosso et al 2019) by in utero electroporation of a gain of function mutation of mTOR (MTOR c.6644C>T p.S2215F), that has been found in different FCD patients (Baldassari et al 2019). Rats were housed in cages with ad libitum food/water, controlled temperature (21-23 °C) and 12:12 h light-dark cycle (light period from 8 A.M. to 8 P.M.).\nPlasmid electroporations were performed with either wild type (WT) or mutant mTOR expression vectors (pCAG-MTOR WT-IRES-GFP or pCAG-MTOR p.S2215F, respectively, 3.0 μg/μL each), or with non-recombinant vector (pCAG-IRES-GFP; 0.5 μg/μL). All constructs were generated by Genscript (Piscataway, NJ) as described before (Pelorosso et al 2019) and were checked by Sanger sequencing.\nTimed pregnant Wistar rats (Janvier Labs, Le Genest-Saint-Isle, France) received buprenorphine at 0.03 mg/kg and were anesthetized with sevoflurane (4%) 30 min later. […]\nPrior to recordings, rat or human acute slices were transferred in oxygenated normal cerebrospinal fluid (ACSF) at room temperature (>1 hour). […] Spontaneous recurrent epileptiform discharges were recorded as local field potentials as previously described (Peret et al., 2014). […]"}, "[3]": {"test_system": "acute cortical slices from a patient with FCD", "test": "Field EPSP (fEPSP) evoked by electrical stimulation in human acute slice from surgically resected FCD", "type": "cell-based", "conditions": "5 μM UBP 310"}, "[4]": {"conditions": "acute cortical slices from a patient with FCD"}, "[5]": {"conditions": "human acute slice from resected FCD, in words"}}, "data": [{"smiles": "Cc1cn(C[C@H](N)C(=O)O)c(=O)n(Cc2ccsc2C(=O)O)c1=O", "note": "[UBP 310]", "values": [{"measurement": "reduction of the frequency of spontaneous recurrent epileptiform discharges", "setting": "[1]; [4]", "value": "around 70%"}, {"measurement": "reduction of the number of epileptiform discharges", "setting": "[1]; [5]", "value": "strong reduction"}, {"measurement": "reduction in the number of epileptiform discharges", "setting": "[2]; 5 μM UBP 310, bath application, acute neocortical slice from adult FCD rat, n=7 slices from 4 FCD rats, Wilcoxon p=0.0156", "value": "around 46%"}, {"measurement": "reduction in the frequency of spontaneous recurrent epileptiform discharges", "setting": "[2]; 5 μM UBP 310, neocortical acute slices from rats with FCDII", "value": "around 46%"}, {"measurement": "reduction of the amplitude of evoked field EPSP (fEPSP)", "setting": "[3]; [4]", "value": "approximately 50%"}, {"measurement": "fEPSP evoked by electrical stimulation", "setting": "[3]; [5]", "value": "strongly reduced"}]}]}
